Data on four molecules can be found in US6387913B1, “Method of treating airway diseases with combined administration of A2B and A3 adenosine receptor antagonists” (priority 2000, dated 2002).

Holding throughout (assay type): in vivo
For one assay, the target named is T1, A1 adenosine receptor (Mus musculus, UniProt Q60612).
T1 construct: from tissue; host or cells: live mouse (airways/lung), control and sensitized animals
T1 sequence (Q60612 1-326): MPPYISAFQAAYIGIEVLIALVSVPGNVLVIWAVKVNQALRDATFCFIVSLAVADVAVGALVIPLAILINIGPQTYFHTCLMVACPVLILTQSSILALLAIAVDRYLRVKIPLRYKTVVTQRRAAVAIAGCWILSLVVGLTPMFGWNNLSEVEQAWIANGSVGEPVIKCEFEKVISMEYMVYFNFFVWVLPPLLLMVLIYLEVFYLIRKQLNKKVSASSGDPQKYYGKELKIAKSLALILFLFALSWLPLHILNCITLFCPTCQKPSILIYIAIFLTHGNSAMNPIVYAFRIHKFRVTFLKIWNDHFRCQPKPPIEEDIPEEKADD
Nature of the assay: Effect of A1 antagonist on dose-responsiveness to CPA (Penh) in a mouse model of asthma. Conditions: DPCPX 10^-4 M nebulized 3 minutes, CPA dose response 15 minutes later; control and sensitized mice. The method, then: FIG. 1 illustrates the effect of DPCPX (10^−4 M) on dose-responsiveness to CPA (micrograms per milliliter—ug/ml) in a mouse model of asthma. Control (Con)=dotted line, sensitized (Sen)=broken line, Con+DPCPX=solid line, and Sen+DPCPX=dashed line. Penh=percentage of saline in all Figures.
FIG. 1 illustrates the effect of DPCPX (10^−4 M) on dose-responsiveness to CPA in a mouse model of asthma. The animals were nebulized with DPCPX […] for 3 minutes and 15 minutes later the dose response to CPA was performed. n=8 for each group. CPA is an A1 adenosine receptor agonist; DPCPX is an A1 adenosine receptor antagonist.

For a further assay, the target named is T2, A2B adenosine receptor (Mus musculus, UniProt Q60614).
T2 construct: from tissue; host or cells: live mouse (airways/lung), control and sensitized animals
T2 sequence (Q60614 1-332): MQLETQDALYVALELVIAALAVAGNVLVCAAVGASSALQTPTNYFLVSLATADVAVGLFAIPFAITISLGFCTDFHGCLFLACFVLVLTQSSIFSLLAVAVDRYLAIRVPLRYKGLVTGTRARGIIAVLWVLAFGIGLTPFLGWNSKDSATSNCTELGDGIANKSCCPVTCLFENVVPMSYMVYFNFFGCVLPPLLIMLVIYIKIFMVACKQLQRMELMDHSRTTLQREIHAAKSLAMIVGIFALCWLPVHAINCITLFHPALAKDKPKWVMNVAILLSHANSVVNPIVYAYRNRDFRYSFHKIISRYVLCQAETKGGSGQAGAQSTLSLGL
As to the kind of experiment: Effect of enprofylline on dose-responsiveness to NECA (Penh) in a mouse model of asthma. Conditions: enprofylline 12 mg/ml nebulized, NECA dose-response 15 minutes later; control and sensitized mice. The method, then:
FIG. 3 illustrates the effect of enprofylline (enp; 12 mg/ml) on dose-responsiveness to 5′-(N-ethyl)carboxamidoadenosine (NECA, in ug/ml). Con=dotted line, Sen=dashed line, Con+enp=solid line, and Sen+enp=broken line.
FIG. 3 illustrates the effect of enprofylline (12 mg/ml) on dose-responsiveness to NECA. The animals were nebulized with enprofylline (12 mg/ml) for 1 minutes and 15 minutes later the dose-response to […] was performed. * p<0.05 compared to Sen+Enp group. # p<0.05 compared to control group. n=10 for each group. NECA is a non-selective adenosine receptor agonist; enprofylline is an A2B adenosine receptor antagonist.

In the next assay the target is T3, A2A adenosine receptor (Mus musculus, UniProt Q60613).
T3 construct: from tissue; host or cells: live mouse (airways/lung), control and sensitized animals
T3 sequence (Q60613 whole entry): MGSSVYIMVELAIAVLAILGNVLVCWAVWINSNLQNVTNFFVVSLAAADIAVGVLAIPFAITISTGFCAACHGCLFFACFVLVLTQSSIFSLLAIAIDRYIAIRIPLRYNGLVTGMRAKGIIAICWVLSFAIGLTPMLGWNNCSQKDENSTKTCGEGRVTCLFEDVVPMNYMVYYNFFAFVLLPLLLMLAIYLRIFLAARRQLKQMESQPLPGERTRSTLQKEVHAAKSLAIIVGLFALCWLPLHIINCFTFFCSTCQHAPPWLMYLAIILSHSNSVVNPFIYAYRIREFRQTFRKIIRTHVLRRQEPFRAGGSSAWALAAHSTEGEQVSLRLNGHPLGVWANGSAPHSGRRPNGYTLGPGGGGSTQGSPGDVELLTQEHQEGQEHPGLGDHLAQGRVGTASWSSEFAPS
Nature of the assay: Effect of A2A antagonist on dose-responsiveness to CGS-21680 (Penh) in a mouse model of asthma. Conditions: DMPX 10^-4 M nebulized 3 minutes, agonist dose response 15 minutes later; control and sensitized mice. The method, then:
FIG. 2 illustrates the effect of DMPX (10^−4 M) on dose-responsiveness to […] (ug/ml). Con=solid line, Sen=dashed line, Con+DMPX=broken line, and Sen+DMPX=dotted line.
FIG. 2 illustrates the effect of DMPX (10^−4 M) on dose-responsiveness to […]. The animals were nebulized with DMPX (10^−4 M) for 3 minutes and 15 minutes later the dose response to CGS-21680 was performed. n=8 for each group. CGS-21680 is an A2A adenosine receptor agonist; DMPX is an A2A adenosine receptor antagonist.

A further assay deals with T4, A3 adenosine receptor (Mus musculus, UniProt Q61618).
T4 construct: from tissue; host or cells: live mouse (airways/lung), control and sensitized animals
T4 sequence (Q61618 1-319): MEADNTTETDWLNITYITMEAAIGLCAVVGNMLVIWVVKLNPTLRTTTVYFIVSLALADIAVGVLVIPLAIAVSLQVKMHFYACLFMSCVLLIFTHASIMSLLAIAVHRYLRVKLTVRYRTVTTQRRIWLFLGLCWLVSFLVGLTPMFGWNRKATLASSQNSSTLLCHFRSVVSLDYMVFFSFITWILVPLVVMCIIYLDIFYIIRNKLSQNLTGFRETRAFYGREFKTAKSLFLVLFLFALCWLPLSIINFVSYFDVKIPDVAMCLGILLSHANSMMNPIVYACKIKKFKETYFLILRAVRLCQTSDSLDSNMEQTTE
Nature of the assay: Effect of MRS1220 on dose-responsiveness to IB-CL-MECA (bronchospasm) in a mouse model of asthma. Conditions: MRS1220 10^-6 M; control and sensitized mice. An excerpt:
Con=solid line, Sen=dotted line, Con+MRS=broken line, and Sen+MRS=dashed line.
Therefore, the combination of A3 and A2B antagonists appear better at blocking the adenosine-induced bronchospasm in a mouse model of asthma.

In the case of `CCCn1c(=O)c2[nH]c(C3CCCC3)nc2n(CCC)c1=O` [DPCPX], the “effect on dose-responsiveness to CPA (Penh)” value at A1 adenosine receptor is reported as “no A1 adenosine receptor involvement”.

`CCCn1c(=O)[nH]c(=O)c2[nH]cnc21` [enprofylline]: the “block of the response to NECA (Penh)” value on A2B adenosine receptor is on record as “did not totally block the response”.

In the case of `C#CCn1c(=O)c2c(ncn2C)n(C)c1=O` [DMPX], the “effect on dose-responsiveness to CGS-21680 (Penh)” value on A2A adenosine receptor was “no A2A adenosine receptor involvement”.

With `O=C(Cc1ccccc1)Nc1nc2ccc(Cl)cc2c2nc(-c3ccco3)nn12` [MRS1220], on A3 adenosine receptor, the “block of the bronchospasm produced by IB-CL-MECA” value is “did not completely block the bronchospasm”.
